According to patent US9895338B1, “Cobalt-polypyridyl complex for treatment of cancer, a pharmaceutical composition and a kit comprising it” (Macau University of Science and Technology, priority 2016, dated 2018):

Experiments:
[1] = test system: HeLa cells (cervical cancer); test: MTT cytotoxicity assay, HeLa; format: cell-based; conditions: 72 h
Protocol: (§1) All prepared cobalt-polypyridyl complexes were dissolved in DMSO at a final concentration of 50 mmol/L and stored at −20° C. before use. Cytotoxicity was assessed by using the 3-(4,5-dimethylthiazol-2-yl)-2,5-diphenyltetrazolium bromide (MTT) (5.0 mg/ml) assay as previously described (Wong, V. K. et al., Cell Death Dis, 2013, 4, e720). Briefly, 4×10^3 cells per well were seeded in 96-well plates before drug treatments. After overnight culture, the cells were then exposed to different concentrations of selected compounds (0.039-100 μmol/L) for 72 h. Cells without drug treatment were used as control. Subsequently, MTT (10 μL) solution was added to each well and incubated at 37° C. for 4 h followed by the addition of 100 μL solubilization buffer (10% SDS in 0.01 mol/L HCl) and overnight incubation. A570 nm was then determined in each well on the next day. The percentage of cell viability was calculated using the following formula: Cell viability (%)=Atreated/Acontrol×100. Data were obtained from three independent experiments. Cells include HeLa cells (cervical cancer), MCF-7 (breast cancer), H1299, H1975, A549 and LLC-1 (lung cancer), HepG2 and Hep3B (liver cancer) and LO2 (normal human hepatocytes).

LLC-1 (lung cancer) = test: MTT cytotoxicity assay, LLC-1; format: cell-based; conditions: LLC-1, MTT, 72 h
Protocol: as §1

[2] = test system: Taxol-sensitive MCF-7 cancer cells; test: MTT cytotoxicity, taxol-sensitive MCF-7; format: cell-based; conditions: MCF-7, MTT, 72 h
Protocol: as §1, with “experiments.” for “experiments. Cells include HeLa cells (cervical cancer), MCF-7 (breast cancer), H1299, H1975, A549 and LLC-1 (lung cancer), HepG2 and Hep3B (liver cancer) and LO2 (normal human hepatocytes).”

[3] = test system: Taxol-sensitive HCT8 cancer cells; test: MTT cytotoxicity, taxol-sensitive HCT8; format: cell-based; conditions: 72 h
Protocol: as §1, with “experiments.” for “experiments. Cells include HeLa cells (cervical cancer), MCF-7 (breast cancer), H1299, H1975, A549 and LLC-1 (lung cancer), HepG2 and Hep3B (liver cancer) and LO2 (normal human hepatocytes).”

[4] = test system: cisplatin-sensitive A2780 ovarian cancer cells; test: MTT cytotoxicity, cisplatin-sensitive A2780; format: cell-based; conditions: 72 h
Protocol: as §1, with “experiments.” for “experiments. Cells include HeLa cells (cervical cancer), MCF-7 (breast cancer), H1299, H1975, A549 and LLC-1 (lung cancer), HepG2 and Hep3B (liver cancer) and LO2 (normal human hepatocytes).”
(§2) Cisplatin-sensitive or -resistant A2780, OV2008 and C13 cancer cells were provided by Prof. Benjamin Tsang (Department of Obstetrics and Gynecology and Department of Cellular and Molecular Medicine, University of Ottawa, Canada). HCT116 p53^+/+ and p53^−/− isogenic human colon cancer cells were provided by Professor Bert Vogelstein (Ludwig Center at Johns Hopkins, Howard Hughes Medical Institute, USA). All media were supplemented with 10% fetal bovine serum and the antibiotics penicillin (50 U/ml) and streptomycin (50 μg/ml; Invitrogen, Paisley, Scotland, UK). All cell cultures were incubated at 37° C. in a 5% humidified CO2 incubator.

[5] = test system: cisplatin-resistant A2780 ovarian cancer cells; test: MTT cytotoxicity, cisplatin-resistant A2780; format: cell-based
Protocol: as §1, with “experiments.” for “experiments. Cells include HeLa cells (cervical cancer), MCF-7 (breast cancer), H1299, H1975, A549 and LLC-1 (lung cancer), HepG2 and Hep3B (liver cancer) and LO2 (normal human hepatocytes).”
as §2

[6] = test system: cisplatin-sensitive SGC-7901 gastric cancer cells; test: MTT cytotoxicity, cisplatin-sensitive SGC-7901; format: cell-based; conditions: SGC-7901, MTT, 72 h
Protocol: as §1, with “experiments.” for “experiments. Cells include HeLa cells (cervical cancer), MCF-7 (breast cancer), H1299, H1975, A549 and LLC-1 (lung cancer), HepG2 and Hep3B (liver cancer) and LO2 (normal human hepatocytes).”

[7] = test system: HCT116 p53^−/− colon cancer cells; test: MTT cytotoxicity, HCT116 p53-/-; format: cell-based, human
Protocol: as §1, with “experiments.” for “experiments. Cells include HeLa cells (cervical cancer), MCF-7 (breast cancer), H1299, H1975, A549 and LLC-1 (lung cancer), HepG2 and Hep3B (liver cancer) and LO2 (normal human hepatocytes).”
as §2

[8] = test system: LC3-II protein conversion; test: Western blotting of LC3-I to LC3-II conversion; format: cell-based; conditions: Western blot; complex at 10 μM and 20 μM
Protocol: After drug treatment, adherent and floating cells were lysed with RIPA lysis buffer. Protein concentrations were determined using the Bio-Rad protein assay (Bio-Rad Laboratories, Inc., Hercules, Calif., USA). The cell lysates of samples were subjected to electrophoresis on SDS polyacrylamide gels and transferred to Hybond enhanced chemiluminescence nitrocellulose membranes (Amersham Biosciences, Piscataway, N.J.), which were then blocked with 5% non-fat dry milk protein for 1 h. Membranes were then incubated with the indicated primary antibodies overnight at 4° C. The binding of the antibody was visualized by peroxidase-coupled secondary antibody using the ECL Western Blotting Detection Reagents (Invitrogen, Paisley, Scotland, UK). Band intensities were quantified by using the software ImageJ (NIH, Bethesda, Md., USA).

[9] = test system: human H1299 lung cancer cells; conditions: H1299, sub-lethal doses 0.2, 0.5, 1.0 μM
Protocol: The cancer cell invasion assay was performed in a Cell Invasion Chamber, a 24-well tissue culture plate with cell culture inserts that contain an […] pore size polycarbonate membrane over a thin layer of dried ECMatrix™ (CHEMICON).
To determine the inhibitory effect of cobalt-polypyridyl complexes of the present invention in cancer cell invasion, human H1299 lung cancer cells with well-known cell invasion ability were treated with the cobalt-polypyridyl complex of Formula (IV) in its sub-lethal (non-toxic) doses.

[10] = Body weight in mouse lung cancer xenograft model; format: in vivo; conditions: IP 40 mg/kg/day, tumor-bearing mice
From the text: The mice were maintained under specific pathogen-free condition in a 12-h light-dark cycle. Experimental conditions were followed in accordance to the “Institutional AnimalCare and User Committee guidelines” of the Macau University of Science and Technology. Xenograft mouse model was constructed as previously described (Wong, V. K. et al., Oncotarget, 2016, 7, 9907-9924). LLC-1 Lewis lung cancer cells (1×10^6 cells) were subcutaneously injected in the right dorsal region of the mice. After tumors grew to about 100 mm^3, the mice were randomly divided into 3 groups: 1) the control group, 2) 40 mg/kg cobalt-polypyridyl complex of Formula (IV) group, and 3) 40 mg/kg cobalt-polypyridyl complex of Formula (IV) as chloride, also referenced as (IV)-Cl (water soluble form) group. The cobalt-polypyridyl complex of Formula (IV) was dissolved in 100 μL buffer (PEG400:EtOH:ddH2O=6:1:3), whereas (IV)-Cl (water soluble form) was dissolved in ddH2O. The complexes were then intraperitoneal injected in mice every day. The body weight of each mouse was recorded with the tumor volume determined by Vernier caliper using the formula of L×W^2×0.52, where L is the longest diameter of tumor and W is the shortest diameter of tumor. Mice with tumor implants were sacrificed after 10 days when the tumor size of vehicle control group reached above 1000 mm^3 due to animal ethical issue.

SMILES: Cc1ccnc(-c2cc(C)ccn2)c1.Cc1ccnc(-c2cc(C)ccn2)c1.Cc1ccnc(-c2cc(C)ccn2)c1.F[P-](F)(F)(F)(F)F.F[P-](F)(F)(F)(F)F.F[P-](F)(F)(F)(F)F.[Co+3] [complex (IV), [Co^III(4,4′-Me2-Bpy)3.](PF6)3]
- IC50 [1]: 11.9 µM
- IC50 (LLC-1 (lung cancer)): 3.39 µM
- IC50 [2]: 4 µM
- IC50 [3]: 3.39 µM
- IC50 [4]: 12.3 µM
- IC50 ([5]; A2780, MTT, 72 h): 10.7 µM
- Resistant Factor ([5]; A2780, cisplatin-resistant over cisplatin-sensitive): 0.87
- IC50 [6]: 11.1 µM
- Resistant Factor ([7]; HCT116 p53^−/− over HCT116 p53^+/+): 0.59
- IC50 ([7]; MTT, 72 h): 9.07 µM
- LC3-I to LC3-II protein conversion [8]: dose-dependently increased the LC3-II protein conversion
- cell invasion (fluorescence signal of invaded cells) [9]: dose-dependently decrease the cell fluorescence signal
- reduction in body weight [10]: no significant reduction in body weight
